Measurements taken from patent US20260207575A1, “P[…] THE TREATMENT OF JUVENILE HUNTINGTON DISEASE” (Prilenia Neurotherapeutics Ltd., priority 2022, published 2026).
Where two headings read alike, the source gives them in different places.

Columns and labels:
[1] = test system: HD patients with CAG repeat length >=50; conditions: 45 mg bid; up to 78 weeks; CAG >=50
Experimental: (§1) All patients began treatment with a 2-week titration period (45 mg once a day) followed by full-dose treatment for 63-78 weeks.
(§2) Efficacy was evaluated using the following clinical endpoints: Change from Baseline to Week 78 in composite UHDRS (cUHDRS) total score, Total Functional Capacity (UHDRS-TFC) score and Stroop Word Reading (SWR) testing for cognitive assessment.

[2] = test system: HD patients with CAG repeat length >=50; conditions: for cUHDRS LS Mean change vs placebo: 45 mg bid (n=1) vs placebo (n=4); for cUHDRS LS Mean change from baseline: n=1
Experimental: as §1, §2
The composite Unified Huntington's Disease Rating Scale (cUHDRS) is a clinical scale used for evaluating the severity and progression of Huntington's disease (HD).
The cUHDRS is a composite scale assessing overall progression of independent key aspects of HD: functional ability, motor symptoms, and cognitive function. cUHDRS comprises four subscales: Total Functional Capacity (TFC), Total Motor Score (TMS), and 2 cognitive measures: the Symbol-Digit Modality Test (SDMT), and Stroop Word Reading (SWR) Test.
The cUHDRS score is a validated scale used for tracking disease progression and evaluating treatment effectiveness in subjects with HD. Higher scores on cUHDRS indicates better overall disease state. By measuring multiple domains, the cUHDRS provides a global and comprehensive assessment of the disease stage.

dopamine D2/D3 receptors = conditions: low-affinity binding; cited from earlier work
[3] = test system: HD patients with CAG repeat length >=50; conditions: for TFC LS Mean change vs placebo: 45 mg bid (n=1) vs placebo (n=4); for TFC LS Mean change from baseline: n=1
Experimental: as §1, §2
The UHDRS-TFC score is a commonly used and regulatory-accepted clinical scale used for assessing the functional capacity of subjects with HD and monitoring the disease's progression and severity over time. This score ranges from 0 to 13 and higher scores indicate better functional capacity. A score of 13 means that the individual is entirely functional with no indications of impairment, while a score of 0 indicates complete dependence on others for daily activities.

[4] = 45 mg bid, up to 78 weeks, CAG >=50
[5] = Week 26, 45 mg bid, CAG >=50, positive change = improvement

Structure (SMILES): CCCN1CCC(c2cccc(S(C)(=O)=O)c2)CC1 [Pridopidine, 4-[3-(methylsulfonyl)phenyl]-1-propyl-piperidine]
- effect on SWR / cognitive function compared to placebo (in words) [1]: marked improvement
- effect on cUHDRS / disease progression compared to placebo (in words) [2, 4]: marked improvement
- cUHDRS LS Mean change vs placebo ([2]; Week 26): 2.52 points
- cUHDRS LS Mean change from baseline [2, 5]: 1.79
- cUHDRS LS Mean change vs placebo ([2]; Week 39): 2.66 points
- cUHDRS LS Mean change from baseline ([2]; Week 39, 45 mg bid, CAG >=50): 1.83
- cUHDRS LS Mean change vs placebo ([2]; Week 52): 2.49 points
- cUHDRS LS Mean change from baseline ([2]; Week 52, 45 mg bid, CAG >=50): 1.67
- cUHDRS LS Mean change vs placebo ([2]; Week 65): 2.32 points
- cUHDRS LS Mean change from baseline ([2]; Week 65, 45 mg bid, CAG >=50): 1.41
- cUHDRS LS Mean change vs placebo ([2]; Week 78): 2.52 points
- cUHDRS LS Mean change from baseline ([2]; Week 78, 45 mg bid, CAG >=50): 1.42
- binding affinity to dopamine D2/D3 receptors (dopamine D2/D3 receptors): in the micromolar range
- effect on TFC / functional capacity compared to placebo (in words) [3, 4]: marked improvement
- TFC LS Mean change vs placebo ([3]; Week 26): 2.99 points
- TFC LS Mean change from baseline [3, 5]: 2.96
- TFC LS Mean change vs placebo ([3]; Week 39): 3.06 points
- TFC LS Mean change from baseline ([3]; Week 39, 45 mg bid, CAG >=50): 2.96
- TFC LS Mean change vs placebo ([3]; Week 52): 3.00 points
- TFC LS Mean change from baseline ([3]; Week 52, 45 mg bid, CAG >=50): 2.91
- TFC LS Mean change vs placebo ([3]; Week 65): 2.90 points
- TFC LS Mean change from baseline ([3]; Week 65, 45 mg bid, CAG >=50): 2.61
- TFC LS Mean change vs placebo ([3]; Week 78): 3.45 points
- TFC LS Mean change from baseline ([3]; Week 78, 45 mg bid, CAG >=50): 2.93
